This passage reports IC50 results from patent publication US9493447B2, “Optically active PDE10 inhibitor” (OMEROS CORPORATION, priority 2014, dated 2016).

In one test the target is PDE2A (Homo sapiens (Human), UniProt O00408). The experiment in a line: PDE selectivity SPA assay, PDE2A. It counts as biochemical. To be noted: substrate 37 nM H-cGMP. The method, then:
(§1) The PDE assay medium consisted of (final concentrations); 50 mM Tris-HCL, pH 7.5; 8.3 mM MgCl2; 1.7 mM EGTA; 0.5 mg/mL bovine serum albumin; and substrate (H-cAMP or H-cGMP). The BSA was lyophilized powder, essentially fatty acid free, ≧96% pure from Sigma (A6003).

For the next test, the target named is PDE5A (Homo sapiens (Human), UniProt O76074). Briefly: PDE selectivity SPA assay, PDE5A. As to conditions: substrate 37 nM H-cGMP. It counts as biochemical. The method, then: as §1
The target of another test is bovine PDE6 (Bos taurus, UniProt P11541+P23439). The experiment in a line: PDE selectivity assay, PDE6. Type of test: biochemical. The method, then: as §1
The next test addresses PDE10A2 (Homo sapiens (Human), UniProt Q9Y233). The experiment in a line: PDE selectivity SPA assay, PDE10A2. Type of test: biochemical. To be noted: Table 1 selectivity profile. The method, then:
as §1

Another test addresses Human PDE10 (Homo sapiens (Human), UniProt Q9Y233). The experiment in a line: Inhibition of Human PDE10 (Example 13, SPA assay). To be noted: substrate 125 nM H-cGMP; all three compounds tested in the same experiment. It counts as biochemical. The method, then: as §1
For a further test, the system named is PDE10. To be noted: from Soderling and Beavo 2000; read-out: IC50 (50% inhibitory concentration) PDE10; cited from earlier work.

Human PDE10, sequence (Q9Y233 267-1055): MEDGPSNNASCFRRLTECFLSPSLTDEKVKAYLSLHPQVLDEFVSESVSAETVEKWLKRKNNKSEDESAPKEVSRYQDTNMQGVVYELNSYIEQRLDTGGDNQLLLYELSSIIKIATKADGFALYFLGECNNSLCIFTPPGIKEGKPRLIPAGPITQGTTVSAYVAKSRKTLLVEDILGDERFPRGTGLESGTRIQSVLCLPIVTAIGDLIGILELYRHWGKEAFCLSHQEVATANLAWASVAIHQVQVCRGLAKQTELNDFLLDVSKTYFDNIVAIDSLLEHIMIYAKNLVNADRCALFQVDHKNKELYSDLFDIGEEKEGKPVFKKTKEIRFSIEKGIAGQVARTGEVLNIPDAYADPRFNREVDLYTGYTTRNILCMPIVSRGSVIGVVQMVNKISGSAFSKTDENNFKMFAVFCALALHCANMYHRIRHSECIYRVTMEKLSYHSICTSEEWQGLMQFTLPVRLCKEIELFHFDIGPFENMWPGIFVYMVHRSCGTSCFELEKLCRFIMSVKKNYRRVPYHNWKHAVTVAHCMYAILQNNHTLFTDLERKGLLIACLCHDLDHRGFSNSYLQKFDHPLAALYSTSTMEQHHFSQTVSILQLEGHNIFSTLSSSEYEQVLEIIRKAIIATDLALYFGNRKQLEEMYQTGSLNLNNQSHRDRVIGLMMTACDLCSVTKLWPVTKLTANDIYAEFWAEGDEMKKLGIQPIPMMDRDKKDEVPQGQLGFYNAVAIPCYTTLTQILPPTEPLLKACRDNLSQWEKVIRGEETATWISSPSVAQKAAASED
PDE2A, sequence (O00408 whole entry): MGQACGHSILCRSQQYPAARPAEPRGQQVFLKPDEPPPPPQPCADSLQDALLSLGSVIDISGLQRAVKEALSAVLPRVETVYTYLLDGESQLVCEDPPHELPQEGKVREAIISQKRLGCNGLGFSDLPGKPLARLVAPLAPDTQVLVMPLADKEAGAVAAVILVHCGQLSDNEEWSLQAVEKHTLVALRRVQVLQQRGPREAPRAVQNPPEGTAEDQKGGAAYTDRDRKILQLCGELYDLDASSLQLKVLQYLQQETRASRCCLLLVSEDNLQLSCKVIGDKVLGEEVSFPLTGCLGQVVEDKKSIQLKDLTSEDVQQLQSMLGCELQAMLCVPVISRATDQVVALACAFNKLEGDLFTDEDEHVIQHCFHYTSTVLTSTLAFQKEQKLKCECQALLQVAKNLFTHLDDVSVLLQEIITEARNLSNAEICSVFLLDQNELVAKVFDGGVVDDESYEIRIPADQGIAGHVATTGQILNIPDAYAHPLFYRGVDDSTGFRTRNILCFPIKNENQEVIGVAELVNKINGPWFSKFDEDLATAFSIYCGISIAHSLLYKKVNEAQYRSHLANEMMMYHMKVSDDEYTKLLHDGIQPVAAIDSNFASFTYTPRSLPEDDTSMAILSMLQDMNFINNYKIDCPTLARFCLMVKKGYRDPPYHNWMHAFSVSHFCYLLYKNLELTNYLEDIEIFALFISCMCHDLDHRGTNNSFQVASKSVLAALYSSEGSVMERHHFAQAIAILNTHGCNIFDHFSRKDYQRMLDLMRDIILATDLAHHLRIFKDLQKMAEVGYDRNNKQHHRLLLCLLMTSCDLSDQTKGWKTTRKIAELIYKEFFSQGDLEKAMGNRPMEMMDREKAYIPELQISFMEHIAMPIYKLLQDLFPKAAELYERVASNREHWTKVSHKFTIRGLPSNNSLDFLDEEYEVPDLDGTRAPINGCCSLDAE
PDE10A2, sequence (Q9Y233 267-1055): as the sequence (Q9Y233 267-1055) above
bovine PDE6, sequence (P11541 2-859 limits assumed): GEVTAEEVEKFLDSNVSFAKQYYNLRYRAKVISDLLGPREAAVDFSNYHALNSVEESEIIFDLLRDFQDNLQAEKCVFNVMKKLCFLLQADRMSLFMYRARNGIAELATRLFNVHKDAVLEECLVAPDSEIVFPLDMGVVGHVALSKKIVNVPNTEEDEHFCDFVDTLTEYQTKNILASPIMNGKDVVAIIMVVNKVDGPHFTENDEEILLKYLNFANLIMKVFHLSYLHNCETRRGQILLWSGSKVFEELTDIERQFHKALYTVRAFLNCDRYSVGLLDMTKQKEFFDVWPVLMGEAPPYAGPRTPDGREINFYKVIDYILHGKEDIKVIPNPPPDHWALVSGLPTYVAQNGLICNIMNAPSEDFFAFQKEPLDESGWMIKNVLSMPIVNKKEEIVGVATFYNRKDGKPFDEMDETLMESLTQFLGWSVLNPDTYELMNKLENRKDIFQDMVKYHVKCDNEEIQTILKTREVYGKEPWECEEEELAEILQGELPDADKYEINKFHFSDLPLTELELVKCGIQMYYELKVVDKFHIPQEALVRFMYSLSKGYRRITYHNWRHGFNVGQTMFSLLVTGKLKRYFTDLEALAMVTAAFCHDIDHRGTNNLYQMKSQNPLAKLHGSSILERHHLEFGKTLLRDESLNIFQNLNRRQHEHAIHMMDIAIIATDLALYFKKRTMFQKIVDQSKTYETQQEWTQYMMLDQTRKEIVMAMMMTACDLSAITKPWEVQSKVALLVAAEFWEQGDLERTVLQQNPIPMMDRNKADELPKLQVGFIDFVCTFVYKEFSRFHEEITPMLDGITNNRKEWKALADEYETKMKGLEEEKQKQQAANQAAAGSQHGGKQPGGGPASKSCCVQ
bovine PDE6, sequence (P23439 2-853 limits assumed): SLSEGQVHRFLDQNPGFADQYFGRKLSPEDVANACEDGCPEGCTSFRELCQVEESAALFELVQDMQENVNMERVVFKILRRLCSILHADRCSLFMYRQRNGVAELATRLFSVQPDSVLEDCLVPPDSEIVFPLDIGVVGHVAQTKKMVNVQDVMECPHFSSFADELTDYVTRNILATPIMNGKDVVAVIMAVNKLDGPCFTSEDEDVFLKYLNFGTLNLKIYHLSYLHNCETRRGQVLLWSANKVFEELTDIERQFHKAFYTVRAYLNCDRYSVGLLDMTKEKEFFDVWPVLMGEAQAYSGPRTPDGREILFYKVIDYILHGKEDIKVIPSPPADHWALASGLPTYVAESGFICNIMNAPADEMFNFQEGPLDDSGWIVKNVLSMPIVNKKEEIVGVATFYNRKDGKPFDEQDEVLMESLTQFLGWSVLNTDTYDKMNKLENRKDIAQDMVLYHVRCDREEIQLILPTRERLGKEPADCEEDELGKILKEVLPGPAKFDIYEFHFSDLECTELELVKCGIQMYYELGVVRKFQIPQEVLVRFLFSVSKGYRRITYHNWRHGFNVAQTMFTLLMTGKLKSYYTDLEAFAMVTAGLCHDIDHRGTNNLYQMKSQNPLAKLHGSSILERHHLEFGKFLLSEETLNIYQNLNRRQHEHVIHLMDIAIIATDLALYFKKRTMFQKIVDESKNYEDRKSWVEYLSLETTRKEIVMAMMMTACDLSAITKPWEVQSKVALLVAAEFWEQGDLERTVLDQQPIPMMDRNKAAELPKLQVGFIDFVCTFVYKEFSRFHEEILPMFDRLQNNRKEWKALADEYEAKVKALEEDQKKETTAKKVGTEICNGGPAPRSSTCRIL

As for `CCOC(C(=O)c1ccc(-c2cc(OC)c(Cl)c(OC)c2)o1)c1ccc(-c2nnc(C)s2)cc1` (racemic) [Compound 1001, 1-(5-(4-chloro-3,5-dimethoxyphenyl)furan-2-yl)-2-ethoxy-2-(4-(5-methyl-1,3,4-thiadiazol-2-yl)phenyl)ethanone], the IC50 against PDE2A is 545 nM; against PDE5A, 5740 nM; against bovine PDE6, over 3000 nM; against PDE10A2 it was 0.62 nM; against Human PDE10, 0.62 nM.
In turn, `CCO[C@H](C(=O)c1ccc(-c2cc(OC)c(Cl)c(OC)c2)o1)c1ccc(-c2nnc(C)s2)cc1` [Compound 2001, (S)-1-(5-(4-chloro-3,5-dimethoxyphenyl)furan-2-yl)-2-ethoxy-2-(4-(5-methyl-1,3,4-thiadiazol-2-yl)phenyl)ethanone] had an IC50 against Human PDE10 of 0.44 nM.
`CCO[C@@H](C(=O)c1ccc(-c2cc(OC)c(Cl)c(OC)c2)o1)c1ccc(-c2nnc(C)s2)cc1` [Compound 3001]: the IC50 against Human PDE10 amounted to 5.8 nM.
In the case of `CC(C)Cn1c(=O)n(C)c(=O)c2[nH]cnc21` [IBMX], in the test on PDE10, the IC50 was 2600 nM.
